According to patent publication US4054669A, “Phenolic menthene derivatives, therapeutic composition containing same and their use as therapeutic compositions” (Les Derives Resiniques et Terpeniques, priority 1975, dated 1977):
Converted amounts (≈) assume the structure as drawn.

Experiments:
[1] = Acute toxicity, Karber and Behrens method, female IFFA-CREDO mice; conditions: mouse, in vivo
Experimental: Acute toxicity was determined by the intravenous and oral routes, using the Karber and Behrens method, in mice female IFFA-CREDO weighing 20 g (10 mice per dosage level).

[2] = test system: Diplococcus pneumoniae 692; assay: Antibacterial activity, dilution method: Diplococcus pneumoniae 692; assay type: cell-based; conditions: for MIC: Streptococcus pneumoniae, 692, nutrient broth T
Experimental: (§1) The tests were carried out according to the dilution method.
(§2) To determine the activity against Staphylococcus, Proteus vulgaris, Klebsiella pneumoniae and Escherichia coli, use was made of Difco bacto-peptone medium, and nutrient broth T was used to investigate the activity against Pneumococcus.

Klebsiella pneumoniae = assay: Antibacterial activity, dilution method: Klebsiella pneumoniae; assay type: cell-based; conditions: Difco bacto-peptone medium
Experimental: as §1, §2

[3] = test system: Staphylococcus pyogenes aureus Oxford; assay: Antibacterial activity, dilution method: Staphylococcus pyogenes aureus Oxford; assay type: cell-based; conditions: Difco bacto-peptone medium
Experimental: as §1, §2

Proteus vulgaris = assay: Antibacterial activity, dilution method: Proteus vulgaris; assay type: cell-based; conditions: Difco bacto-peptone medium
Experimental: as §1, §2

Escherichia coli = assay: Antibacterial activity, dilution method: Escherichia coli; assay type: cell-based; conditions: Difco bacto-peptone medium
Experimental: as §1, §2

[4] = test system: Streptococcus pyrogenes 5625; assay: Antibacterial activity, dilution method: Streptococcus pyrogenes 5625; assay type: cell-based
Experimental: as §1, §2

[5] = Solubility in physiological saline solution; assay type: physicochemical
gram-positive germs = assay: Antibacterial activity, dilution method: gram-positive germs (summary); assay type: cell-based; conditions: in words
Experimental: as §1, §2

[6] = Sensitivity to light and air; assay type: physicochemical

With `Cc1c(C2=CCC(C)CC2C(C)C)cc(C(C)C)c(O)c1S(=O)(=O)O` (stereo not shown) [LJ 2128, m.menthene-thymol-2-sulfonate] as the compound, how does the LD50 ([1]; iv) read?
The LD50 was 125 mg/kg.

What about the LD50 ([1]; po) of the same compound?
The LD50 was 1920 mg/kg.

And the MIC [2]?
Its MIC is 12 µg/mL (≈ 32.7 µM).

And the MIC (Klebsiella pneumoniae)?
Its MIC is greater than 1000 µg/mL.

What about the MIC [3] of the same compound?
The MIC was 140 µg/mL (≈ 382 µM).

What about the MIC (Proteus vulgaris) of the same compound?
The MIC was greater than 1000 µg/mL.

And the MIC (Escherichia coli)?
The MIC was greater than 1000 µg/mL.

And the MIC [4]?
Its MIC is 16 µg/mL (≈ 43.7 µM).

What about the “solubility in physiological saline solution” value [5] of the same compound?
The value was “soluble in physiological saline solution, giving a clear solution”.

And the “activity against gram-positive germs” value (gram-positive germs)?
The value was “active against gram-positive germs”.

Which results are given for `CC1CC=C(c2ccc(O)c(S(=O)(=O)O)c2)C(C(C)C)C1` (stereo not shown) [LJ 2148, sodium m.menthene-phenol-2-sulfonate]?
LD50 ([1]; iv): 305 mg/kg; LD50 ([1]; po): 2900 mg/kg; MIC [2]: 3 µg/mL; activity against Diplococcus pneumoniae ([2]; in words): particularly active against Diplococcus pneumoniae; MIC (Klebsiella pneumoniae): > 1000 µg/mL; MIC [3]: 28 µg/mL; MIC (Proteus vulgaris): > 1000 µg/mL; MIC (Escherichia coli): > 1000 µg/mL; MIC [4]: 10 µg/mL; solubility in physiological saline solution [5]: soluble in physiological saline solution; activity against gram-positive germs (gram-positive germs): active against gram-positive germs

For `CC1CC=C(c2ccc(O)cc2)C(C(C)C)C1` (stereo not shown) [m.menthene-phenol, 4-(3'-m.menthen-4'-yl)-phenol], which “sensitivity to light and air” value [6] is on record?
Its value is “highly sensitive to light and air”.
